Measured values reported in US20110166191A1, “3-(2-amino-ethyl)-5-(3-cyclohexyl-propylidene)-thiazolidine-2,4-dione and its derivatives as multiple signaling pathway inhibitors and for the treatment of cancer” (priority 2010, published 2011).

Columns and labels:
Test in all cases: NCI 60 cell line panel screening
Format in all cases: cell-based
NCI-H23 = settings: Homo sapiens, Non-Small Cell Lung Cancer, read-out: Growth Inhibition (GI50)
Description: (§1) Compound 3-(2-aminoethyl)-5-(3-cyclohexylpropylidene)thiazolidine-2,4-dione was screened at five concentrations in National Cancer Institute (NCI) 60-cell line panel according to NCI's protocol for growth inhibition.

MOLT-4 = settings: Homo sapiens, Leukemia, read-out: Growth Inhibition (GI50)
Description: as §1

MDA-MB-231/ATCC = settings: Homo sapiens, Breast Cancer, read-out: Growth Inhibition (GI50)
Description: as §1

OVCAR-5 = settings: Homo sapiens, Ovarian Cancer, read-out: Growth Inhibition (GI50)
Description: as §1

ACHN = settings: Homo sapiens, Renal Cancer, read-out: Growth Inhibition (GI50)
Description: as §1

SK-MEL-5 = settings: Homo sapiens, Melanoma, read-out: Growth Inhibition (GI50)
Description: as §1

OVCAR-8 = settings: Homo sapiens, Ovarian Cancer, read-out: Growth Inhibition (GI50)
Description: as §1

MDA-MB-468 = settings: Homo sapiens, Breast Cancer, read-out: Growth Inhibition (GI50)
Description: as §1

SK-OV-3 = settings: Homo sapiens, Ovarian Cancer, read-out: Growth Inhibition (GI50)
Description: as §1

BT-549 = settings: Homo sapiens, Breast Cancer, read-out: Growth Inhibition (GI50)
Description: as §1

NCI/ADR-RES = settings: Homo sapiens, Ovarian Cancer, read-out: Growth Inhibition (GI50)
Description: as §1

UO-31 = settings: Homo sapiens, Renal Cancer, read-out: Growth Inhibition (GI50)
Description: as §1

SK-MEL-2 = settings: Homo sapiens, Melanoma, read-out: Growth Inhibition (GI50)
Description: as §1

A549/ATCC = settings: Homo sapiens, Non-Small Cell Lung Cancer, read-out: Growth Inhibition (GI50)
Description: as §1

SN12C = settings: Homo sapiens, Renal Cancer, read-out: Growth Inhibition (GI50)
Description: as §1

A498 = settings: Homo sapiens, Renal Cancer, read-out: Growth Inhibition (GI50)
Description: as §1

K-562 = settings: Homo sapiens, K562, Leukemia, read-out: Growth Inhibition (GI50)
Description: as §1

MCF7 = settings: Homo sapiens, Breast Cancer, read-out: Growth Inhibition (GI50)
Description: as §1

786-0 = settings: Homo sapiens, Renal Cancer, read-out: Growth Inhibition (GI50)
Description: as §1

SF-295 = settings: Homo sapiens, CNS Cancer, read-out: Growth Inhibition (GI50)
Description: as §1

IGROV1 = settings: Homo sapiens, IGROV-1, Ovarian Cancer, read-out: Growth Inhibition (GI50)
Description: as §1

SF-539 = settings: Homo sapiens, CNS Cancer, read-out: Growth Inhibition (GI50)
Description: as §1

KM12 = settings: Homo sapiens, Colon Cancer, read-out: Growth Inhibition (GI50)
Description: as §1

M14 = settings: Homo sapiens, Melanoma, read-out: Growth Inhibition (GI50)
Description: as §1

NCI-522 = settings: Non-Small Cell Lung Cancer, read-out: Growth Inhibition (GI50)
Description: as §1

CCRF-CEM = settings: Homo sapiens, Leukemia, read-out: Growth Inhibition (GI50)
Description: as §1

COLO 205 = settings: Homo sapiens, Colon Cancer, read-out: Growth Inhibition (GI50)
Description: as §1

HOP-62 = settings: Homo sapiens, Non-Small Cell Lung Cancer, read-out: Growth Inhibition (GI50)
Description: as §1

NCI-H322M = settings: Homo sapiens, Non-Small Cell Lung Cancer, read-out: Growth Inhibition (GI50)
Description: as §1

NCI-H226 = settings: Homo sapiens, Non-Small Cell Lung Cancer, read-out: Growth Inhibition (GI50)
Description: as §1

HOP-92 = settings: Homo sapiens, Non-Small Cell Lung Cancer, read-out: Growth Inhibition (GI50)
Description: as §1

SK-MEL-28 = settings: Homo sapiens, Melanoma, read-out: Growth Inhibition (GI50)
Description: as §1

SNB-19 = settings: Homo sapiens, CNS Cancer, read-out: Growth Inhibition (GI50)
Description: as §1

EKVX = settings: Homo sapiens, Non-Small Cell Lung Cancer, read-out: Growth Inhibition (GI50)
Description: as §1

SF-268 = settings: Homo sapiens, CNS Cancer, read-out: Growth Inhibition (GI50)
Description: as §1

SW-620 = settings: Homo sapiens, Colon Cancer, read-out: Growth Inhibition (GI50)
Description: as §1

MDA-MB-435 = settings: Homo sapiens, Melanoma, read-out: Growth Inhibition (GI50)
Description: as §1

DU-145 = settings: Homo sapiens, Prostate Cancer, read-out: Growth Inhibition (GI50)
Description: as §1

OVCAR-4 = settings: Homo sapiens, Ovarian Cancer, read-out: Growth Inhibition (GI50)
Description: as §1

RPMI-8226 = settings: Homo sapiens, Leukemia, read-out: Growth Inhibition (GI50)
Description: as §1

MALME-3M = settings: Homo sapiens, Melanoma, read-out: Growth Inhibition (GI50)
Description: as §1

HCC-2998 = settings: Homo sapiens, Colon Cancer, read-out: Growth Inhibition (GI50)
Description: as §1

T-47D = settings: Homo sapiens, T47D, Breast Cancer, read-out: Growth Inhibition (GI50)
Description: as §1

UACC-257 = settings: Homo sapiens, Melanoma, read-out: Growth Inhibition (GI50)
Description: as §1

NCI-H460 = settings: Homo sapiens, Non-Small Cell Lung Cancer, read-out: Growth Inhibition (GI50)
Description: as §1

Which GI50 (NCI-H23) does the source give for NCCN1C(=O)S/C(=C\CCC2CCCCC2)C1=O [Example 4, 3-(2-aminoethyl)-5-(3-cyclohexylpropylidene)thiazolidine-2,4-dione] here?
The GI50 was 3.08 µM.

And the GI50 (MOLT-4)?
Its GI50 is 2380 nM.

And the GI50 (MDA-MB-231/ATCC)?
Its GI50 is 2080 nM.

What about the GI50 (OVCAR-5) of the same compound?
Its GI50 is 1980 nM.

What about the GI50 (ACHN) of the same compound?
The GI50 was 1840 nM.

And the GI50 (SK-MEL-5)?
Its GI50 is 1700 nM.

And the GI50 (OVCAR-8)?
Its GI50 is 1890 nM.

And the GI50 (MDA-MB-468)?
The GI50 was 1860 nM.

And the GI50 (SK-OV-3)?
The GI50 was 4.04 µM.

What about the GI50 (BT-549) of the same compound?
The GI50 was 2050 nM.

And the GI50 (NCI/ADR-RES)?
The GI50 was 2200 nM.

What about the GI50 (UO-31) of the same compound?
The GI50 was 1560 nM.

And the GI50 (SK-MEL-2)?
The GI50 was 1900 nM.

And the GI50 (A549/ATCC)?
Its GI50 is 2500 nM.

And the GI50 (SN12C)?
Its GI50 is 2150 nM.

What about the GI50 (A498) of the same compound?
The GI50 was 1570 nM.

And the GI50 (K-562)?
Its GI50 is 2590 nM.

What about the GI50 (MCF7) of the same compound?
Its GI50 is 3.13 µM.

And the GI50 (786-0)?
Its GI50 is 1720 nM.

And the GI50 (SF-295)?
Its GI50 is 1730 nM.

And the GI50 (IGROV1)?
The GI50 was 1960 nM.

What about the GI50 (SF-539) of the same compound?
Its GI50 is 1830 nM.

What about the GI50 (KM12) of the same compound?
Its GI50 is 1770 nM.

And the GI50 (M14)?
Its GI50 is 1680 nM.

And the GI50 (NCI-522)?
The GI50 was 1400 nM.

What about the GI50 (CCRF-CEM) of the same compound?
The GI50 was 2500 nM.

What about the GI50 (COLO 205) of the same compound?
Its GI50 is 2190 nM.

What about the GI50 (HOP-62) of the same compound?
Its GI50 is 3.25 µM.

And the GI50 (NCI-H322M)?
Its GI50 is 5.1 µM.

What about the GI50 (NCI-H226) of the same compound?
Its GI50 is 9.98 µM.

What about the GI50 (HOP-92) of the same compound?
The GI50 was 5.41 µM.

What about the GI50 (SK-MEL-28) of the same compound?
Its GI50 is 1770 nM.

What about the GI50 (SNB-19) of the same compound?
Its GI50 is 4.46 µM.

What about the GI50 (EKVX) of the same compound?
The GI50 was 2530 nM.

What about the GI50 (SF-268) of the same compound?
Its GI50 is 2230 nM.

And the GI50 (SW-620)?
The GI50 was 1850 nM.

What about the GI50 (MDA-MB-435) of the same compound?
Its GI50 is 1850 nM.

What about the GI50 (DU-145) of the same compound?
The GI50 was 1760 nM.

What about the GI50 (OVCAR-4) of the same compound?
The GI50 was 1600 nM.

And the GI50 (RPMI-8226)?
Its GI50 is 2510 nM.

And the GI50 (MALME-3M)?
Its GI50 is 1800 nM.

What about the GI50 (HCC-2998) of the same compound?
Its GI50 is 1780 nM.

And the GI50 (T-47D)?
The GI50 was 2040 nM.

What about the GI50 (UACC-257) of the same compound?
The GI50 was 1690 nM.

What about the GI50 (NCI-H460) of the same compound?
Its GI50 is 1950 nM.
